# Results: patent publication US10662218B2, “Analogs of celastrol” (ERX Pharmaceuticals, Inc., priority 2015, dated 2020)
# Values joined by “and” are separate entries in the source; they are usually repeats but may differ in a detail not shown here. Equal entries are not always repeated. Where two headings read alike, the source gives them in different places.
# Experiments:
# [1] = Compound solubility in PBS (pH 7.4), LC-MS/MS; conditions: pH 7.4, aqueous buffer, kinetic from dmso stock; for solubility at 1 h: PBS (pH 7.4)
# Experimental: • Test concentration: 100 μM (1% of DMSO) • Test systems: PBS (pH 7.4) • Incubation condition: shaken (1000 rpm) for 1 h at room temperature • Sample size: Duplicates (n=2) • Bioanalytical method: LC-MS/MS
# [2] = test system: C57BL/6 Diet Induced Obese (DIO) mice; conditions: I.P. administration
# Experimental: The following test compounds were studied to determine any anti-obesity effect when administered to rodents. First, test compounds were formulated in 50, 100, 200, 400, 500, 1000 and 2000 μg/kg doses and administered once daily in a dose volume of 2 mL/kg i.p. for multiple days. Test compounds were compared to administration of vehicle to mice. The experiment consisted of two phases: a pre-dosing phase and a dosing phase. Weight of the animals in each testing group was measured daily. Fluid samples were taken as well.
# Descriptive statistics (n, mean, standard error of the mean, standard deviation) were completed. Additionally, one way analysis of variance followed by Dunnett's post-hoc test was performed on body weight (cumulative body weight change), glucose (glucose percent change), and food consumption (cumulative food consumption). Area under the curve (for body weight, cumulative body weight change, daily body weight change, and food consumption) was computed for treatment groups. An appropriate comparison test, such as one-way analysis of variance and Dunnett's, was performed on the group means for the area under the curve computations.
# [3] = test system: C57BL/6 Diet Induced Obese (DIO) mice; test: Oral (P.O.) administration study in DIO mice: animal fate (mortality) and clinical observations; conditions: 2 mg/kg
# Experimental: Male C57BL/6 DIO mice were assigned to 12 groups, and doses of 2 mg/kg Celastrol (ERX1000-4), ERX1006, ERX1007, ERX1037, ERX1060, ERX1077, ERX1107, ERX1149, ERX1168, ERX1177, and Pristimerin were administered to Groups 2 through 12, respectively. Animals were dosed via oral gavage once daily for 10 days at a volume of 2 mL/kg. The vehicle control article was 1% methyl cellulose (400 cps) in citric acid and phosphate buffer.
# Parameters assessed included mortality, clinical observations, body weights and food consumption and blood glucose evaluations.
# All animals were anesthetized via carbon dioxide, sacrificed, and discarded without further evaluation on Day 11.
# [4] = test system: C57BL/6 Diet Induced Obese (DIO) mice; test: Oral (P.O.) administration study in DIO mice: in vivo activity, body weights; set-up: species or system mouse; conditions: for change in vivo at 2 mg/kg: Mus musculus, po, read-out: Body weight, %-Diff; for Individual Body Weight: individual male animals
# In short: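 Male C57BL/6 DIO mice (21-22 weeks, 29.8-40.1 g) were gavage-acclimated with vehicle, then dosed orally once daily for 10 days at 2 mL/kg. Body weight was recorded daily before dosing. Cumulative change and AUC were analysed by one-way ANOVA with Dunnett's test.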
# [5] = Solubility (μM) Mean, Table 6-B, test concentration 100 μM (1% of DMSO), shaken (1000 rpm) 1 h at room temperature, n = 2
structure (smiles),measurement,setting,value
CCNC(=O)OC1=C(C)C2=CC=C3[C@@](C)(CC[C@@]4(C)[C@@H]5C[C@](C)(C#N)CC[C@]5(C)CC[C@]34C)C2=CC1=O [ERX1047],solubility at 1 h,[1]; [5],1.13 µM
same,solubility at 1 h,"[1]; Solubility (μM), Table 6-D",1.13 µM
same,activity,[2]; dose 100 μg/kg,−
same,activity,[2]; dose 400 μg/kg,++
COC1=C(C)C2=CC=C3[C@@](C)(CC[C@@]4(C)[C@@H]5C[C@](C)(C(N)=O)CC[C@]5(C)CC[C@]34C)C2=CC1=O [ERX1031],solubility at 1 h,[1]; [5],8.56 µM
same,solubility at 1 h,"[1]; Solubility (μM), Table 6-D",8.56 µM
same,activity,[2]; dose 100 μg/kg,−
same,activity,[2]; dose 400 μg/kg,++
CC1=C(O)C(=O)C=C2C1=CC=C1[C@@]2(C)CC[C@@]2(C)[C@@H]3C[C@](C)(C#N)CC[C@]3(C)CC[C@]12C [ERX1015],solubility at 1 h,[1]; [5],0.79 µM
same,solubility at 1 h,"[1]; Solubility (μM), Table 6-D",0.791 µM
same,activity,[2]; dose 100 μg/kg,++
CC(=O)OC1=C(C)C2=CC=C3[C@@](C)(CC[C@@]4(C)[C@@H]5C[C@](C)(C(=O)O)CC[C@]5(C)CC[C@]34C)C2=CC1=O [ERX1007],solubility,[1]; Solubility (μM),48.8 µM
same,solubility,[1]; Solubility (μM) Mean,48.8 µM
same,Individual Animal Fate: Fate Status,"[3]; individual male animals, phase of fate Dosing, phase week 2, phase day 11",Scheduled Sacrifice
same,Body weight %-Diff,"[4]; 2 mg/kg oral gavage once daily, dosing phase Day 1",1%
same,"Body weight, Mean","[4]; 2 mg/kg oral gavage once daily, dosing phase Day 1, N 5",34.5 g
same,Body weight %-Diff,"[4]; 2 mg/kg oral gavage once daily, dosing phase Day 2",−1%
same,"Body weight, Mean","[4]; 2 mg/kg oral gavage once daily, dosing phase Day 2, N 5",34.1 g
same,Body weight %-Diff,"[4]; 2 mg/kg oral gavage once daily, dosing phase Day 3",−2%
same,"Body weight, Mean","[4]; 2 mg/kg oral gavage once daily, dosing phase Day 3, N 5",33.3 g
same,Body weight %-Diff,"[4]; 2 mg/kg oral gavage once daily, dosing phase Day 4",0%
same,"Body weight, Mean","[4]; 2 mg/kg oral gavage once daily, dosing phase Day 4, N 5",33.3 g
same,Body weight %-Diff,"[4]; 2 mg/kg oral gavage once daily, dosing phase Day 5",−2%
same,"Body weight, Mean","[4]; 2 mg/kg oral gavage once daily, dosing phase Day 5, N 5",33.1 g
same,Body weight %-Diff,"[4]; 2 mg/kg oral gavage once daily, dosing phase Day 6",−3%
same,"Body weight, Mean","[4]; 2 mg/kg oral gavage once daily, dosing phase Day 6, N 5",32.4 g
same,"Body weight, Mean","[4]; Day 7, DSNG phase, 2 mg/kg, male, N=5",32.4 g
same,"Body weight, Mean","[4]; Day 8, DSNG phase, 2 mg/kg, male, N=5",32.7 g
same,"Body weight, Mean","[4]; Day 9, DSNG phase, 2 mg/kg, male, N=5",32.3 g
same,"Body weight, Mean","[4]; Day 10, DSNG phase, 2 mg/kg, male, N=5",32.1 g
same,"Body weight, Mean","[4]; Day 11, DSNG phase, 2 mg/kg, male, N=5",32.3 g
same,change in vivo at 2 mg/kg,"[4]; 168 h, Day 7, DSNG phase, 2 mg/kg, male, difference of group mean",-3%
same,change in vivo at 2 mg/kg,"[4]; 192 h, Day 8, DSNG phase, 2 mg/kg, male, difference of group mean",-3%
same,change in vivo at 2 mg/kg,"[4]; 216 h, Day 9, DSNG phase, 2 mg/kg, male, difference of group mean",-3%
same,change in vivo at 2 mg/kg,"[4]; 240 h, Day 10, DSNG phase, 2 mg/kg, male, difference of group mean",-4%
same,change in vivo at 2 mg/kg,"[4]; 264 h, Day 11, DSNG phase, 2 mg/kg, male, difference of group mean",-5%
same,"Individual Body Weight, PRED 11","[4]; individual male DIO mouse of the 2 mg/kg group, pre-dose phase day 11 (baseline)",36.8 g and 39.8 g and 35.7 g and 32.5 g and 37.6 g
same,"Individual Body Weight, PRED 12","[4]; individual male DIO mouse of the 2 mg/kg group, pre-dose phase day 12 (baseline)",35.2 g and 38.9 g and 35.7 g and 31.7 g and 36.9 g
same,"Individual Body Weight, PRED 13","[4]; individual male DIO mouse of the 2 mg/kg group, pre-dose phase day 13 (baseline)",34.1 g and 38.7 g and 35.3 g and 32.3 g and 36.5 g
same,"Individual Body Weight, PRED 14","[4]; individual male DIO mouse of the 2 mg/kg group, pre-dose phase day 14 (baseline)",34.2 g and 38.6 g and 35.2 g and 32.7 g and 37.3 g
same,"Individual Body Weight, DSNG 1","[4]; individual male DIO mouse, 2 mg/kg, dosing phase day 1, 2 mg/kg",33.8 g and 36.3 g and 34.7 g and 31.4 g and 36.2 g
same,"Individual Body Weight, DSNG 2","[4]; individual male DIO mouse, 2 mg/kg, dosing phase day 2, 2 mg/kg",33.2 g and 36.4 g and 34.2 g and 30.3 g and 36.2 g
CC1=C(O)C(=O)C=C2C1=CC=C1[C@@]2(C)CC[C@@]2(C)[C@@H]3C[C@](C)(N)CC[C@]3(C)CC[C@]12C [ERX1077],solubility at 1 h,[1]; [5],16.7 µM
same,solubility at 1 h,"[1]; Solubility (μM), Table 6-D",16.7 µM
same,Individual Animal Fate: Fate Status,"[3]; mouse, in vivo",Scheduled Sacrifice
same,Individual Body Weight,"[4]; 2 mg/kg, Phase Day DSNG 1",31.5 g and 32.8 g and 34.5 g and 38.3 g and 34.9 g
same,Individual Body Weight,"[4]; 2 mg/kg, Phase Day DSNG 2",31.2 g and 32.5 g and 34.1 g and 38.4 g and 34.4 g
same,Individual Body Weight,"[4]; 2 mg/kg, Phase Day PRED 11 (pre-dose baseline)",32.6 g and 34.8 g and 36.1 g and 40.2 g and 38.0 g
same,Individual Body Weight,"[4]; 2 mg/kg, Phase Day PRED 12 (pre-dose baseline)",33.2 g and 34.0 g and 35.8 g and 40.4 g and 37.0 g
same,Individual Body Weight,"[4]; 2 mg/kg, Phase Day PRED 13 (pre-dose baseline)",31.6 g and 33.1 g and 35.6 g and 39.7 g and 36.9 g
same,Individual Body Weight,"[4]; 2 mg/kg, Phase Day PRED 14 (pre-dose baseline)",32.7 g and 33.6 g and 35.7 g and 40.6 g and 36.6 g
same,"Body weight, Mean","[4]; DIO mice, male, 2 mg/kg, phase DSNG, Day 7",33.3 g
same,"Body weight, Mean","[4]; DIO mice, male, 2 mg/kg, phase DSNG, Day 8",33.7 g
same,"Body weight, Mean","[4]; DIO mice, male, 2 mg/kg, phase DSNG, Day 9",33.5 g
same,"Body weight, Mean","[4]; DIO mice, male, 2 mg/kg, phase DSNG, Day 10",33.8 g
same,"Body weight, Mean","[4]; DIO mice, male, 2 mg/kg, phase DSNG, Day 11",33.9 g
same,"Body weight, Mean","[4]; Day 1, DSNG phase, 2 mg/kg, male, N=5",34.4 g
same,"Body weight, Mean","[4]; Day 2, DSNG phase, 2 mg/kg, male, N=5",34.1 g
same,"Body weight, Mean","[4]; Day 3, DSNG phase, 2 mg/kg, male, N=5",34.0 g
same,"Body weight, Mean","[4]; Day 4, DSNG phase, 2 mg/kg, male, N=5",33.7 g
same,"Body weight, Mean","[4]; Day 5, DSNG phase, 2 mg/kg, male, N=5",33.7 g
same,"Body weight, Mean","[4]; Day 6, DSNG phase, 2 mg/kg, male, N=5",34.0 g
same,change in vivo at 2 mg/kg,"[4]; 24 h, Day 1, DSNG phase, 2 mg/kg, male, difference of group mean",0%
same,change in vivo at 2 mg/kg,"[4]; 48 h, Day 2, DSNG phase, 2 mg/kg, male, difference of group mean",-1%
same,change in vivo at 2 mg/kg,"[4]; 72 h, Day 3, DSNG phase, 2 mg/kg, male, difference of group mean",0%
same,change in vivo at 2 mg/kg,"[4]; 96 h, Day 4, DSNG phase, 2 mg/kg, male, difference of group mean",1%
same,change in vivo at 2 mg/kg,"[4]; 120 h, Day 5, DSNG phase, 2 mg/kg, male, difference of group mean",0%
same,change in vivo at 2 mg/kg,"[4]; 144 h, Day 6, DSNG phase, 2 mg/kg, male, difference of group mean",1%
same,change in vivo at 2 mg/kg,"[4]; 168 h, DIO mice, male, 2 mg/kg, phase DSNG, Day 7, difference of group mean from vehicle group 1",-1%
same,change in vivo at 2 mg/kg,"[4]; 192 h, DIO mice, male, 2 mg/kg, phase DSNG, Day 8, difference of group mean from vehicle group 1",0%
same,change in vivo at 2 mg/kg,"[4]; 216 h, DIO mice, male, 2 mg/kg, phase DSNG, Day 9, difference of group mean from vehicle group 1",1%
same,change in vivo at 2 mg/kg,"[4]; 240 h, DIO mice, male, 2 mg/kg, phase DSNG, Day 10, difference of group mean from vehicle group 1",1%
same,change in vivo at 2 mg/kg,"[4]; 264 h, DIO mice, male, 2 mg/kg, phase DSNG, Day 11, difference of group mean from vehicle group 1",-1%
